This passage reports IC50 results from patent publication US20050096350A1, “Halo substituted benzo[b]thiophenes as therapeutic agents” (priority 2003, published 2005).

As usually defined, the IC50 is the point on the concentration scale where inhibition reaches its midpoint.

T1 sequence (P48736 whole entry, species assumed): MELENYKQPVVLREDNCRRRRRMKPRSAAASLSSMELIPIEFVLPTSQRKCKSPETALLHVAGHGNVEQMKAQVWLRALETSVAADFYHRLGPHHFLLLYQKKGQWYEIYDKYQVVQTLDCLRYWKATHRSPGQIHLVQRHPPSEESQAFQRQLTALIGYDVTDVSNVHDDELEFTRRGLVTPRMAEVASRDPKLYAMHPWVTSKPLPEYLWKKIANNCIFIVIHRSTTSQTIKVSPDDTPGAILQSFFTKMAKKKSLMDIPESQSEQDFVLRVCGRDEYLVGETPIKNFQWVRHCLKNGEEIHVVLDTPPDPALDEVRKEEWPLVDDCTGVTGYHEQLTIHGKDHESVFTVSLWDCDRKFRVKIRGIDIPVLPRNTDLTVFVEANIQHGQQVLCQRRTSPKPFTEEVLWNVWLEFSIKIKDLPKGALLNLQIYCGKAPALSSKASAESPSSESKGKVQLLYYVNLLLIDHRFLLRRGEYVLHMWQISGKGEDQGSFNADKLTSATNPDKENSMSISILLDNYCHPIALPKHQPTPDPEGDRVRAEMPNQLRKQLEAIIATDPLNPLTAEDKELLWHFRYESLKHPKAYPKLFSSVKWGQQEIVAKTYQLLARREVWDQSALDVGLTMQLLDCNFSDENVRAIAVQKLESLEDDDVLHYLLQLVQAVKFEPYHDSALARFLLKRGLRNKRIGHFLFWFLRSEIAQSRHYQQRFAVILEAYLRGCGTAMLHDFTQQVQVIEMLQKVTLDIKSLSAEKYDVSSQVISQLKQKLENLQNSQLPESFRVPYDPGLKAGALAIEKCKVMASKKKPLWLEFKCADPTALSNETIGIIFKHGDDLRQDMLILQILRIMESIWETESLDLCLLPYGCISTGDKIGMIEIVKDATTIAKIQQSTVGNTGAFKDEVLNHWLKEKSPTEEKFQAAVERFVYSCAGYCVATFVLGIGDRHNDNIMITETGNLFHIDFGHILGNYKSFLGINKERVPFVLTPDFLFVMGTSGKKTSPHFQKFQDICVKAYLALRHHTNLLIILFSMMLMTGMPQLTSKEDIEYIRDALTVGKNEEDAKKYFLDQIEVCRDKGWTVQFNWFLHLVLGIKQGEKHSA
T1 sequence (Q8WYR1 whole entry partner, species assumed): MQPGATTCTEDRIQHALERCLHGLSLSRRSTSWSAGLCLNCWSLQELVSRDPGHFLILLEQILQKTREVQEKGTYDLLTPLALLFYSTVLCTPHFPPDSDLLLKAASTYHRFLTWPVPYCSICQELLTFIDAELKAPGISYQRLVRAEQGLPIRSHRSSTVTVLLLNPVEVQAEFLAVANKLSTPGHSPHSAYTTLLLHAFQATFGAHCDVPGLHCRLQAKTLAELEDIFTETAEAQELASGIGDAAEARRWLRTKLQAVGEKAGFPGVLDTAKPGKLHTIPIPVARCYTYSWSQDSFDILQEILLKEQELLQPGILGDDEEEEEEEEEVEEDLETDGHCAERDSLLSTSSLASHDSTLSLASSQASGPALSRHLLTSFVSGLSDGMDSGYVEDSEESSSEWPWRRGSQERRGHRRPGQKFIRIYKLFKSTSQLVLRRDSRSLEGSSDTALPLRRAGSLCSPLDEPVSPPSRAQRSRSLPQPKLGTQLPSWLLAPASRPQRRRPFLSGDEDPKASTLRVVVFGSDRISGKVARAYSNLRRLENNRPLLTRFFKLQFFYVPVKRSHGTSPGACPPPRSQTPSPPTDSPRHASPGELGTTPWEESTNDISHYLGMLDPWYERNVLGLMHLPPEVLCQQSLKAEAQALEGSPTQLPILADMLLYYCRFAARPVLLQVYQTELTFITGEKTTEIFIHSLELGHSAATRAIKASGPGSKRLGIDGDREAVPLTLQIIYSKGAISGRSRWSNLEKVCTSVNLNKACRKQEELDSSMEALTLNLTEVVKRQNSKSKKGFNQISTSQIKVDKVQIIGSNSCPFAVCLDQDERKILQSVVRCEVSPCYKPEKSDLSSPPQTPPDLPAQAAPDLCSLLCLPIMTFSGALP

The assay concerns the target T1, PI3Kγ (purified recombinant p101/p110γ protein) (Homo sapiens, UniProt P48736).
T1 construct: HA; made in house; host or cells: Spodoptera frugiperda Sf9 cells (baculovirus coinfection)
The assay is described as follows: PI3Kγ in vitro kinase assay. Particulars: 20 μM ATP, 25 μM PIP2, G protein β1/γ2 subunits. It is filed as biochemical. The method, then: Spodtera frugiperda cells, grown in ESF921 media, were coinfected with baculovirus expressing a glu-tagged p101 and baculovirus expressing an HA-tagged […], at a 3:1 ratio of p101 baculovirus to p110γ baculovirus. Sf9 cells were grown to 1×10^7 total cells/mL in 10 L bioreactors and harvested 48-72 hours post infection. Samples of infected cells were then tested for expression of p101/p110γ PI3 kinase by immunoprecipitation and Western Blot analysis methods (see below).
To purify PI3Kγ, 4 volumes of room temperature hypotonic lysis buffer (1 mM MgCl2, 1 mM DTT, 5 mM EGTA, 1 mM Pefabloc, 0.5 μM aprotinin, 5 μM leupeptin, 2 μM pepstatin, 5 μM E64, pH 8) per gram of cell paste, was poured onto frozen cell pellets with stirring, then lysed in a nitrogen “bomb” at 400 psi (599HC T316, Parr Instrument Co, Moline, Ill.). NaCl was added to 150 mM, and sodium cholate was added to 1% and mixed for another 45 minutes. The lysates were clarified by centrifugation for 25 minutes at 14,000 rpm. The lysates were then loaded over anti-glu-linked Protein-G Sepaharose beads (Covance Research Products, Richmond, Calif.) using 20 mL resin/50 g cell paste. The column was washed with 15 volumes of wash buffer (1 mM DTT, 0.2 mM EGTA, 1 mM Pefabloc, 0.5 μM aprotinin, 5 μM leupeptin, 2 μM pepstatin, 5 μM E64, 150 mM NaCl, 1% sodium cholate, pH 8). PI3Kγ was eluted with 6 column volumes of wash buffer that contain 100 μg/mL of a peptide that competes for binding of the glu tag. The column fractions with the eluted protein (determined by taking OD280 readings) were collected and dialyzed in 0.2 mM EGTA, 1 mM DTT, 1 mM Pefabloc, 5 μM leupeptin, 0.5% sodium cholate, 150 mM NaCl, and 50% glycerol, pH 8. The fractions were stored at −80° C. until further use.
Spodtera frugiperda cells were coinfected with baculovirus expressing a glu-tagged G protein β1 and baculovirus expressing a G protein β2, at a 1:1 ratio of glu-tagged G protein β1 baculovirus to G protein β2 baculovirus. Sf9 cells are grown in 10 L bioreactors and harvested 48-72 hours post infection. Samples of infected cells were tested for G protein β1/β2 expression by Western Blot analysis, as described below. Cell lysates were homogenized and loaded onto a column of glu-tagged beads as in Biological Example 1 and competed off the column with a glu peptide and processed as described in Biological Example 1.
The inhibitory properties of the compounds in Table 1 were assayed in an in vitro PI3K assay. In a 96-well polypropylene plate, each well was spotted with 2 μL of 50 times the desired final concentration of compound in DMSO. Purified recombinant p101/p110γ protein (0.03 μg; ˜2.7 nM) and G protein β1/γ2 subunits (0.09 μg; ˜57.7 nM) for each reaction was combined in the assay buffer (30 mM HEPES, 100 mM NaCl, 1 mM EGTA, and 1 mM DTT). ATP and [γ-^32P-ATP] (0.09 μCi) were added to this mixture so that the final ATP concentration in the reaction was 20 μM. Lipid micelles were formed by sonicating phosphatidylinositol-4,5-diphosphate (PIP2), phosphatidylethanolamine (PE), and Na-cholate in the assay buffer for 10 minutes, adding MgCl2 and incubating on ice for 20 minutes, for final concentrations of 25 μM PIP2, 300 μM PE, 0.02% Na-cholate, and 10 mM MgCl2 in the reaction. The reactions were started by adding equal volumes lipid and enzyme mixture in a total volume of 50 μL, allowed to run for 20 minutes at room temperature, and stopped with 100 μL 75 mM H3PO4. The lipid product was transferred to a glass fiber filter plate and washed with 75 mM H3PO4 several times. The presence of radioactive lipid product (PIP3) was measured by adding Wallac Optiphase mix to each well and counting in a Wallac 1450 Trilux plate reader (PerkinElmer Life Sciences Inc., Boston, Mass. 02118). The IC50 for each compound tested is reported in μM in the Tables above.
As to `COC(=O)c1ccc(Sc2c(C(=O)Nc3nnn[nH]3)sc3ccc(OC)c(F)c23)cc1` [Example 26, 4-[4-Fluoro-5-methoxy-2-(1H-tetrazol-5-ylcarbamoyl)-benzo[b]thiophen-3-ylsulfanyl]-benzoic acid methyl ester], the IC50 is 20000 nM.
In the case of `COc1cc2c(OC3CCOCC3)c(C(=O)Nc3nn[nH]n3)sc2cc1F` [Example 14, 6-Fluoro-5-methoxy-3-(tetrahydro-pyran-4-yloxy)-benzo[b]thiophene-2-carboxylic acid (2H-tetrazol-5-yl)-amide], the IC50 turned out to be 62.5 nM.
The figure for `COC(=O)Cc1ccc(Sc2c(C(=O)Nc3nnn[nH]3)sc3ccc(OC)c(F)c23)cc1` [Example 27, {4-[4-Fluoro-5-methoxy-2-(1H-tetrazol-5-ylcarbamoyl)-benzo[b]thiophen-3-ylsulfanyl]-phenyl}-acetic acid methyl ester] is 14200 nM.
The figure for “3-(4-Chloro-phenylsulfanyl)-6-fluoro-5-methoxy-benzo[b]thiophene-2-carboxylic acid (1H-tetrazol-5-yl)-amide [Example 20]” is 45.5 nM.
The figure for `COc1ccc2sc(C(=O)Nc3nnn[nH]3)c(Sc3cccc(C(=O)O)c3)c2c1F` [Example 25, 3-[4-Fluoro-5-methoxy-2-(1H-tetrazol-5-ylcarbamoyl)-benzo[b]thiophen-3-ylsulfanyl]-benzoic acid] is 2390 nM; for `COc1cc2c(O[C@H]3CCC[C@@H](C)C3)c(C(=O)Nc3nn[nH]n3)sc2cc1F` (racemic) [Example 9, cis-(±)-6-Fluoro-5-methoxy-3-(3-methyl-cyclohexyloxy)-benzo[b]thiophene-2-carboxylic acid (2H-tetrazol-5-yl)-amide] it is 3.8 nM; for `COc1ccc2sc(C(=O)Nc3nnn[nH]3)c(SC3CCCC3)c2c1F` [Example 38, 3-Cyclopentylsulfanyl-4-fluoro-5-methoxy-benzo[b]thiophene-2-carboxylic acid (1H-tetrazol-5-yl)-amide] it is 190 nM.
`COc1ccc2sc(C(=O)Nc3nnn[nH]3)c(Sc3ccc(O)cc3)c2c1F` [Example 22, 4-Fluoro-3-(4-hydroxy-phenylsulfanyl)-5-methoxy-benzo[b]thiophene-2-carboxylic acid (1H-tetrazol-5-yl)-amide]: the IC50 worked out at 2760 nM.
The figure for `COc1ccc2sc(C(=O)Nc3nnn[nH]3)c(Sc3ccc(CCC(=O)O)cc3)c2c1F` [Example 36, 3-{4-[4-Fluoro-5-methoxy-2-(1H-tetrazol-5-ylcarbamoyl)-benzo[b]thiophen-3-ylsulfanyl]-phenyl}-propionic acid] is 7180 nM.
As to `COc1cc2c(OC3CCC3)c(C(=O)Nc3nn[nH]n3)sc2cc1F` [Example 16, 3-Cyclobutoxy-6-fluoro-5-methoxy-benzo[b]thiophene-2-carboxylic acid (2H-tetrazol-5-yl)-amide], the IC50 stood at 32.5 nM.
The figure for “3-(4-Cyclohexyl-phenylsulfanyl)-4-fluoro-5-methoxy-benzo[b]thiophene-2-carboxylic acid (1H-tetrazol-5-yl)-amide [Example 37]” is 505 nM; for `COc1ccc2sc(C(=O)Nc3nnn[nH]3)c(SC3CCCCC3)c2c1F` [Example 21, 3-Cyclohexylsulfanyl-4-fluoro-5-methoxy-benzo[b]thiophene-2-carboxylic acid (1H-tetrazol-5-yl)-amide] it is 580 nM.
The figure for `COc1cc2c(Oc3ccc(C(C)C)cc3)c(C(=O)Nc3nn[nH]n3)sc2cc1F` [Example 6, 6-Fluoro-3-(4-isopropyl-phenoxy)-5-methoxy-benzo[b]thiophene-2-carboxylic acid (2H-tetrazol-5-yl)-amide] is 13.5 nM; for `COc1cc2c(OC3CCCCC3)c(C(=O)Nc3nn[nH]n3)sc2cc1F` [Example 7, 3-Cyclohexyloxy-6-fluoro-5-methoxy-benzo[b]thiophene-2-carboxylic acid (2H-tetrazol-5-yl)-amide] it is 10.5 nM; for `COc1cc2c(OC3CC(C)CC(C)C3)c(C(=O)Nc3nn[nH]n3)sc2cc1F` (stereo not shown) [Example 15, 3-(3,5-Dimethyl-cyclohexyloxy)-6-fluoro-5-methoxy-benzo[b]thiophene-2-carboxylic acid (2H-tetrazol-5-yl)-amide] it is 2.2 nM.
Regarding “6-Fluoro-5-methoxy-3-phenoxy-benzo[b]thiophene-2-carboxylic acid iminomethyl-amide [Example 3]”, the IC50 is 24.5 nM.
